SMILES strings stand for the structures.

Results on 4 molecules are retold here after ChEMBL document CHEMBL4706567, “Transthyretin Amyloidogenesis Inhibitors: From Discovery to Current Developments” (J Med Chem, 2020).

Assay [1] deals with Transthyretin (Homo sapiens, UniProt P02766). In words: Binding affinity to wild type TTR (unknown origin) expressed in Escherichia coli BL21/DE3 by Circular dichroism spectroscopy.
The target of assay [2] is Transthyretin (Homo sapiens, UniProt P02766, V50M). Description: Stabilization of TTR V30M mutant (unknown origin) assessed as inhibition of protein-mediated amyloid fibril formation.

For `O=C(O)Cc1ccccc1Nc1c(Cl)cccc1Cl` [DICLOFENAC], at Transthyretin [1], the Kd came out at 0.06 µM.

Take `O=C(CCc1ccc(O)cc1)c1c(O)cc(O)cc1O` [PHLORETIN]: the Kd at Transthyretin [2] came out at 8.1 µM. As for `O=C(O)c1ccccc1Nc1cccc(C(F)(F)F)c1` [FLUFENAMIC ACID], binding at Transthyretin [1] was characterised by a dissociation constant (Kd) of 0.03 µM. Take `COc1cc(O)c(CC=C(C)C)c(O)c1C(=O)/C=C/c1ccc(O)cc1` [XANTHOHUMOL]: on Transthyretin [2], the dissociation constant Kd was 12 µM.

As a reminder, the Kd is the free concentration of one partner at which half of the binding sites on the other are occupied at equilibrium, for simple one-to-one binding.
